Reference: PMC4584933, “Establishing the pig as a large animal model for vaccine development against human cancer” (Frontiers in Genetics, 2015)

Assays:
PBMCs = experiment: In vitro peptide stimulation of porcine PBMCs, IFN-γ release assay (ELISA); assay type: cell-based, pig; design: key to T cell response: “x” indicates that a response was found to this given peptide at least once; details: PBMCs of immunized pigs, 2 × 10^5/well, 5 μg/ml peptide, 67.5–70.0 h, IFN-γ ELISA; response = 2-fold increase vs day -2 and at least 25 pg/ml IFN-γ, found at least once; SLA restriction not included
SLA-1*04:01 = experiment: Peptide-MHC class I complex stability, scintillation proximity assay (SPA); design: species or system pig; details: biotinylated recombinant SLA heavy chain, 125I-β2m, excess unlabeled β2m, read every 40 min, number only if t1/2 ≥ 0.5 h, '-' = not stably binding
Summary of the method: (§1)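 Biotinylated recombinant heavy chains captured on streptavidin scintillation plates with 125I-β2m and peptide; signal read every 40 min under dissociating conditions with excess unlabeled β2m. Signal duration gives complex half-life; ≥ 0.5 h counted as stable binder.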

SLA-1*07:02 = experiment: as above; design: species or system pig; details: biotinylated recombinant SLA heavy chain, 125I-β2m, excess unlabeled β2m, read every 40 min, number only if t1/2 ≥ 0.5 h, '-' = not stably binding
Summary of the method: as §1

SLA-2*05:02 = experiment: as above; design: species or system pig; details: biotinylated recombinant SLA heavy chain, 125I-β2m, excess unlabeled β2m, read every 40 min, number only if t1/2 ≥ 0.5 h, '-' = not stably binding
Summary of the method: as §1

SLA-2*04:01 = experiment: as above; design: species or system pig; details: biotinylated recombinant SLA heavy chain, 125I-β2m, excess unlabeled β2m, read every 40 min, number only if t1/2 ≥ 0.5 h, '-' = not stably binding
Summary of the method: as §1

SLA-3*04:01 = experiment: as above; design: species or system pig; details: biotinylated recombinant SLA heavy chain, 125I-β2m, excess unlabeled β2m, read every 40 min, number only if t1/2 ≥ 0.5 h, '-' = not stably binding
Summary of the method: as §1

[1] = Dissolving of 20mer peptides for immunization; assay type: physicochemical; details: to 5 mM in milliQ water, N-methyl-2-pyrrolidone or 3% ammonia water
Protocol: Fifty-nine 20mer peptides with 10mer overlap covering the entire IDO and RhoC amino acid (aa) sequence were purchased from Genscript (New Jersey, U.S) or Pepscan Presto BV (Lelystad, the Netherlands). […] Peptides were dissolved to a concentration of 5 mM in milliQ water, N-methyl-2-pyrrolidone or 3% ammonia water in accordance with the supplier's recommendations, for further details see Supplementary Table 1.

| Substance | T cell response (PBMCs) | Binder (t1/2 ≥ 0.5 h): half-life of peptide-SLA-1*04:01 complex (SLA-1*04:01) | Binder (t1/2 ≥ 0.5 h): half-life of peptide-SLA-1*07:02 complex (SLA-1*07:02) | Binder (t1/2 ≥ 0.5 h): half-life of peptide-SLA-2*05:02 complex (SLA-2*05:02) | Binder (t1/2 ≥ 0.5 h): half-life of peptide-SLA-2*04:01 complex (SLA-2*04:01) | Binder (t1/2 ≥ 0.5 h): half-life of peptide-SLA-3*04:01 complex (SLA-3*04:01) | dissolving of peptide [1] |
| --- | --- | --- | --- | --- | --- | --- | --- |
| ALWDTAGQEDY [RhoC1, porcine RhoC-derived 9-11mer peptide] | x | 3.9 h | 54 min |  |  |  |  |
| YPDTDVILMCF [RhoC59, porcine RhoC-derived 9-11mer peptide] |  | 1.0 h | 48 min |  |  |  |  |
| VLPRNIAIPY [IDO126, porcine IDO-derived 9-11mer peptide] | x | - (t1/2 (hours) is listed for each of the stably binding peptides (t1/2 ≥ 0.5 h)) | 42 min |  |  |  |  |
| EIAAASAIKVI [IDO16, porcine IDO-derived 9-11mer peptide] | x | 0.8 h |  | 12.5 h |  |  |  |
| SLHKALEVF [IDO117, porcine IDO-derived 9-11mer peptide] |  | - (t1/2 (hours) is listed for each of the stably binding peptides (t1/2 ≥ 0.5 h)) | - (t1/2 (hours) is listed for each of the stably binding peptides (t1/2 ≥ 0.5 h)) |  |  |  |  |
| CVQAMVSLRNY [IDO9, porcine IDO-derived 9-11mer peptide] |  | - (t1/2 (hours) is listed for each of the stably binding peptides (t1/2 ≥ 0.5 h)) | 186 min |  |  |  |  |
| RLAHLVLGY [IDO104, porcine IDO-derived 9-11mer peptide] |  | - (t1/2 (hours) is listed for each of the stably binding peptides (t1/2 ≥ 0.5 h)) | 30 min |  | - (t1/2 (hours) is listed for each of the stably binding peptides (t1/2 ≥ 0.5 h)) |  |  |
| KVLPRNIAIPY [IDO63, porcine IDO-derived 9-11mer peptide] | x | - (t1/2 (hours) is listed for each of the stably binding peptides (t1/2 ≥ 0.5 h)) | 42 min |  |  | - (t1/2 (hours) is listed for each of the stably binding peptides (t1/2 ≥ 0.5 h)) |  |
| VLGYITMAY [IDO125, porcine IDO-derived 9-11mer peptide] |  | - (t1/2 (hours) is listed for each of the stably binding peptides (t1/2 ≥ 0.5 h)) | 60 min |  | 0.8 h |  |  |
| MANRISAFGY [RhoC39, porcine RhoC-derived 9-11mer peptide] | x | 0.7 h | 90 min |  | 1.4 h |  |  |
| MTYKNMDILF [IDO81, porcine IDO-derived 9-11mer peptide] |  | - (t1/2 (hours) is listed for each of the stably binding peptides (t1/2 ≥ 0.5 h)) | - (t1/2 (hours) is listed for each of the stably binding peptides (t1/2 ≥ 0.5 h)) | - (t1/2 (hours) is listed for each of the stably binding peptides (t1/2 ≥ 0.5 h)) | 4.2 h | - (t1/2 (hours) is listed for each of the stably binding peptides (t1/2 ≥ 0.5 h)) |  |
| IDO330−350: 20mer peptide of the overlapping IDO/RhoC library, omitted due to dissolving problems (EAYDACVKALVSLRSYHLQIV; UniProt P14902 330-350, looked up, fragment) |  |  |  |  |  |  | dissolving problems |
| RTYMPPAHRNF [IDO113, porcine IDO-derived 9-11mer peptide] |  | 1.0 h |  | - (t1/2 (hours) is listed for each of the stably binding peptides (t1/2 ≥ 0.5 h)) | - (t1/2 (hours) is listed for each of the stably binding peptides (t1/2 ≥ 0.5 h)) | - (t1/2 (hours) is listed for each of the stably binding peptides (t1/2 ≥ 0.5 h)) |  |
